Several values for one entry are separate records, joined by “and”; a condition that tells them apart may be missing. Equal entries are not always repeated. Where two headings read alike, the source gives them in different places.
What was measured:
[1] = β-sheet content by ATR-FT-IR; assay type: physicochemical
Method in brief: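 ATR FT-IR, diamond crystal, 64 scans, 2 cm^-1, on freeze-dried 1 mg/mL PNF; β-sheet per prior calculation. Fluorescamine CR: 3 kDa filter, DMSO redissolution, 20 min RT, ex 365/em 470 nm; values as n-fold enhancement over DMSO (set to 1).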

[2] = Zeta-potential measurement; assay type: physicochemical; settings: for Zeta-pot. / mV: zeta potential of peptide, Fig S15 source data
Method in brief: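 Peptides diluted from DMSO stock into PBS pH 7.4 to 1 mg/mL and aged 1 d at RT, then diluted into 1 mM aqueous KCl. Zeta potential derived from electrophoretic mobility via Smoluchowski; triplicates, averaged over two independent experiments.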

[3] = assay type: physicochemical; settings: STD prep
[4] = tested on: HIV-1 infection of TZM-bl cells; experiment: HIV-1 infectivity enhancement assay, β-galactosidase luminescence; assay type: cell-based; settings: for Rel-to EFC / n-fold to virus: Fig S8 panels B, D; for Log10 Inf. rel. to EF-C: log10 of HIV-1 infection of TZM-bl cells relative to EF-C, Fig S15 source data, asymmetric std dev errors
[5] = category derived from the zeta potential
[6] = Feb2021, Log10 of infectivity relative to EF-C
[7] = Feb2021, figures match the 1.3 µM column
[8] = Feb2021, infectivity enhancement relative to EF-C
[9] = Feb2021, infectivity relative to virus only
[10] = Feb2021, log10 of infectivity relative to EF-C
[11] = Feb2021, n-fold enhancement relative to EF-C
[12] = Feb2021, n-fold infectivity relative to EF-C
[13] = infectivity enhancement relative to EF-C
[14] = infectivity n-fold relative to virus alone
[15] = infectivity class (low / medium / high) of each library peptide, main list in c1-c6, same classes repeated in sub-lists of sequences containing the hydrophobicity/charge patterns P+,H0,P+,H0,P0,H0,P0, P+,H0,P0,H0,P0,H0,P0, P+,H0,P0,H0
[16] = Feb2021, 1.3 µM value relative to virus only (0 µM)
[17] = Feb2021, unrounded values of the 1.3 µM column
[18] = Feb2021 run, infectivity n-fold relative to virus alone
[19] = Feb2021 run, log10 of infectivity relative to EF-C
[20] = Feb2021 run, n-fold infectivity relative to EF-C
[21] = infectivity class (low / medium / high) of the peptide in the sequence-pattern analysis, Fig. S22-A4, class limits not given
[22] = infectivity enhancement relative to EF-C (=1), Feb2021 run
[23] = infectivity n-fold relative to virus only, Feb2021 run
[24] = log10 of infectivity relative to EF-C, Feb2021 run

KIKIQIC [TM112 / CN11]
FTIR ß-sheet content/ % ([1]; ATR-FT-IR): 53% and 52.93%
Zeta Pot. / mV [2]: 19.93 mV
Zeta category ( +1 = if > 4 mV;-1 = if < -4 mV; 0 = -4mV to 4 mV) [2]: 1 (+1 = if > 4 mV)
Zeta category ( +1 = if > 4 mV;-1 = if < -4 mV; 0 = -4mV to 4 mV) [2, 5]: 1 (+1 = if > 4 mV)
Zeta category ( +1 = if > 4 mV;-1 = if < -4 mV; 0 = -4mV to 4 mV) ([2]; category from zeta potential): 1 (+1 = if > 4 mV)
Zeta Pot. / mV ([2]; mean, Std Zeta in next column): 19.93 mV
Zeta-pot. / mV [2]: 19.93 mV
TEM: 1= fibrils, 0= aggregates (micelle), 0.5 = aggregates and fibrils, -1 = nothing obersved, STD prep [3]: 1
Log10 of Rel to EFC (Feb2021) [4, 6]: -0.2164
Absolute Infectivity / RLU /s (Feb2021) [4, 7]: 9447 RLU /s
Rel-to EFC (Feb-2021) [4, 8]: 0.6076
n-fold to virus (Feb2021) [4, 9]: 25.53
Log10 of Rel to EFC (Feb2021) [4, 10]: -0.2164
Rel-to EFC (Feb-2021) [4, 11]: 0.6076
Rel-to EFC (Feb-2021) [4, 12]: 0.6076
Rel-to EFC [4, 13]: 0.6076
n-fold to virus [4, 14]: 25.53
infectivity [4, 15]: medium
Log10 Inf. rel. to EF-C [4]: -0.2164

KIKIQINM [JGB2]
FTIR ß-sheet content/ % [1]: 41%
FTIR ß-sheet content/ % ([1]; ATR-FT-IR): 41%
Zeta category ( +1 = if > 4 mV;-1 = if < -4 mV; 0 = -4mV to 4 mV) [2]: 1 (+1 = if > 4 mV)
Zeta category ( +1 = if > 4 mV;-1 = if < -4 mV; 0 = -4mV to 4 mV) ([2]; category from zeta potential): 1 (+1 = if > 4 mV)
Zeta Pot. / mV ([2]; mean, Std Zeta in next column): 8.51 mV
Zeta Pot. / mV ([2]; mean, Std in separate column): 8.51 mV
Zeta-pot. / mV [2]: 8.51 mV
TEM: 1= fibrils, 0= aggregates (micelle), 0.5 = aggregates and fibrils, -1 = nothing obersved, STD prep [3]: 1
n-fold to virus (Feb2021) [4, 16]: 15.24
Log10 of Rel to EFC (Feb2021) [4, 6]: -0.4404
Rel-to EFC (Feb-2021) [4, 11]: 0.3627
Rel-to EFC (Feb-2021) [4, 12]: 0.3627
Absolute Infectivity / RLU /s (Feb2021) [4, 17]: 2947 RLU /s
n-fold to virus (Feb2021) [4, 18]: 15.24
Log10 of Rel to EFC (Feb2021) [4, 19]: -0.4404
Rel-to EFC (Feb-2021) [4, 20]: 0.3627
infectivity [4, 15]: medium
Log10 Inf. rel. to EF-C [4]: -0.4404

KIKIQINMWQ [JG1]
FTIR ß-sheet content/ % [1]: 42.41%
FTIR ß-sheet content/ % ([1]; ATR-FT-IR): 42% and 42.41%
Zeta category ( +1 = if > 4 mV;-1 = if < -4 mV; 0 = -4mV to 4 mV) [2]: 1 (+1 = if > 4 mV)
Zeta category ( +1 = if > 4 mV;-1 = if < -4 mV; 0 = -4mV to 4 mV) ([2]; FigS26): 1 (+1 = if > 4 mV)
Zeta category ( +1 = if > 4 mV;-1 = if < -4 mV; 0 = -4mV to 4 mV) ([2]; category from zeta potential): 1 (+1 = if > 4 mV)
Zeta Pot. / mV ([2]; mean, Std Zeta in next column): 14.87 mV
Zeta Pot. / mV ([2]; mean, Std in separate column): 14.87 mV
Zeta-pot. / mV [2]: 14.87 mV
TEM: 1= fibrils, 0= aggregates (micelle), 0.5 = aggregates and fibrils, -1 = nothing obersved, STD prep ([3]; FigS26): 1
TEM: 1= fibrils, 0= aggregates (micelle), 0.5 = aggregates and fibrils, -1 = nothing obersved, STD prep [3]: 1
n-fold to virus (Feb2021) [4, 16]: 12.47
Log10 of Rel to EFC (Feb2021) [4, 6]: -0.5276
Log10 of Rel to EFC (Feb2021) [4, 10]: -0.5276
Rel-to EFC (Feb-2021) [4, 11]: 0.2968
Rel-to EFC (Feb-2021) [4, 12]: 0.2968
Absolute Infectivity / RLU /s (Feb2021) [4, 17]: 6650 RLU /s
n-fold to virus (Feb2021) [4, 18]: 12.47
Log10 of Rel to EFC (Feb2021) [4, 19]: -0.5276
Rel-to EFC (Feb-2021) [4, 20]: 0.2968
infectivity [4, 15]: medium
Log10 Inf. rel. to EF-C [4]: -0.5276

KIKQII [msis21]
FTIR ß-sheet content/ % [1]: 38.67%
FTIR ß-sheet content/ % ([1]; ATR-FT-IR): 39% and 38.67%
Zeta Pot. / mV [2]: -12.67 mV
Zeta category ( +1 = if > 4 mV;-1 = if < -4 mV; 0 = -4mV to 4 mV) [2]: -1 (-1 = if < -4 mV)
Zeta category ( +1 = if > 4 mV;-1 = if < -4 mV; 0 = -4mV to 4 mV) ([2]; category from zeta potential): -1 (-1 = if < -4 mV)
Zeta Pot. / mV ([2]; mean, Std Zeta in next column): -12.67 mV
Zeta Pot. / mV ([2]; mean, Std in separate column): -12.67 mV
Zeta-pot. / mV [2]: -12.67 mV
TEM: 1= fibrils, 0= aggregates (micelle), 0.5 = aggregates and fibrils, -1 = nothing obersved, STD prep [3]: 0
Log10 of Rel to EFC (Feb2021) [4, 6]: -2.308
Absolute Infectivity / RLU /s (Feb2021) [4, 7]: 100 RLU /s
n-fold to virus (Feb2021) [4, 9]: 0.2069
Rel-to EFC (Feb-2021) [4, 11]: 0.004924
Rel-to EFC (Feb-2021) [4, 12]: 0.004924
infectivity [4, 21]: low
Rel-to EFC (Feb-2021) [4, 22]: 0.004924
n-fold to virus (Feb2021) [4, 23]: 0.2069
Log10 Inf. rel. to EF-C [4]: -2.308
Log10 of Rel to EFC (Feb2021) [4, 24]: -2.308

KIKQIINM [JGA2]
FTIR ß-sheet content/ % [1]: 44%
FTIR ß-sheet content/ % ([1]; ATR-FT-IR): 44%
Zeta category ( +1 = if > 4 mV;-1 = if < -4 mV; 0 = -4mV to 4 mV) [2]: 1 (+1 = if > 4 mV)
Zeta category ( +1 = if > 4 mV;-1 = if < -4 mV; 0 = -4mV to 4 mV) ([2]; category from zeta potential): 1 (+1 = if > 4 mV)
Zeta Pot. / mV ([2]; mean, Std Zeta in next column): 16.3 mV
Zeta Pot. / mV ([2]; mean, Std in separate column): 16.3 mV
Zeta-pot. / mV [2]: 16.3 mV
TEM: 1= fibrils, 0= aggregates (micelle), 0.5 = aggregates and fibrils, -1 = nothing obersved, STD prep [3]: 1
Log10 of Rel to EFC (Feb2021) [4, 6]: -0.3458
Rel-to EFC (Feb-2021) [4, 11]: 0.451
infectivity [4, 15]: medium
Rel-to EFC (Feb-2021) [4, 22]: 0.451
n-fold to virus (Feb2021) [4, 23]: 18.95
Log10 Inf. rel. to EF-C [4]: -0.3458
Log10 of Rel to EFC (Feb2021) [4, 24]: -0.3458

KIKQIINMWQ [JG2]
FTIR ß-sheet content/ % [1]: 40.68%
FTIR ß-sheet content/ % ([1]; ATR-FT-IR): 41% and 40.68%
Zeta Pot. / mV [2]: 15.37 mV
Zeta category ( +1 = if > 4 mV;-1 = if < -4 mV; 0 = -4mV to 4 mV) [2]: 1 (+1 = if > 4 mV)
Zeta category ( +1 = if > 4 mV;-1 = if < -4 mV; 0 = -4mV to 4 mV) ([2]; FigS26): 1 (+1 = if > 4 mV)
Zeta category ( +1 = if > 4 mV;-1 = if < -4 mV; 0 = -4mV to 4 mV) ([2]; category from zeta potential): 1 (+1 = if > 4 mV)
Zeta Pot. / mV ([2]; mean, Std Zeta in next column): 15.37 mV
Zeta Pot. / mV ([2]; mean, Std in separate column): 15.37 mV
Zeta-pot. / mV [2]: 15.37 mV
TEM: 1= fibrils, 0= aggregates (micelle), 0.5 = aggregates and fibrils, -1 = nothing obersved, STD prep ([3]; FigS26): 1
TEM: 1= fibrils, 0= aggregates (micelle), 0.5 = aggregates and fibrils, -1 = nothing obersved, STD prep [3]: 1
Log10 of Rel to EFC (Feb2021) [4, 6]: -0.4604
Absolute Infectivity / RLU /s (Feb2021) [4, 7]: 9363 RLU /s
n-fold to virus (Feb2021) [4, 9]: 14.55
Rel-to EFC (Feb-2021) [4, 11]: 0.3464
Rel-to EFC (Feb-2021) [4, 12]: 0.3464
Rel-to EFC [4, 13]: 0.3464
n-fold to virus [4, 14]: 14.5544
infectivity [4, 15]: medium
Rel-to EFC (Feb-2021) [4, 22]: 0.3464
n-fold to virus (Feb2021) [4, 23]: 14.55
Log10 Inf. rel. to EF-C [4]: -0.4604
Log10 of Rel to EFC (Feb2021) [4, 24]: -0.4604

KLKLQLL [TG4 / (KM2)]
FTIR ß-sheet content/ % ([1]; ATR-FT-IR): 0%
Zeta Pot. / mV [2]: -4.93 mV
Zeta category ( +1 = if > 4 mV;-1 = if < -4 mV; 0 = -4mV to 4 mV) [2]: -1 (-1 = if < -4 mV)
Zeta category ( +1 = if > 4 mV;-1 = if < -4 mV; 0 = -4mV to 4 mV) [2, 5]: -1 (-1 = if < -4 mV)
Zeta Pot. / mV ([2]; mean, Std Zeta in next column): -4.93 mV
Zeta-pot. / mV [2]: -4.93 mV
TEM: 1= fibrils, 0= aggregates (micelle), 0.5 = aggregates and fibrils, -1 = nothing obersved, STD prep [3]: 1
Log10 of Rel to EFC (Feb2021) [4, 6]: -2.156
Absolute Infectivity / RLU /s (Feb2021) [4, 7]: 163.3 RLU /s
Rel-to EFC (Feb-2021) [4, 8]: 0.006983
n-fold to virus (Feb2021) [4, 9]: 0.2934
Rel-to EFC (Feb-2021) [4, 12]: 0.006983
infectivity [4, 15]: low
infectivity [4, 21]: low
Log10 Inf. rel. to EF-C [4]: -2.156
